Experimental data: ChEMBL document CHEMBL1138337, “Bis-azaaromatic quaternary ammonium salts as antagonists at nicotinic receptors mediating nicotine-evoked dopamine release: An investigation of binding conformation” (2007)

What was measured:
[1] = target: Neuronal acetylcholine receptor subunit alpha-7 (Rattus norvegicus) (UniProt Q05941); experiment: Displacement of [3H]MLA from alpha-7 nAChR expressed in rat brain membrane at 100 nM
[2] = target: Neuronal acetylcholine receptor; alpha4/beta2 (Rattus norvegicus) (UniProt P09483+P12390); experiment: Displacement of [3H]NIC from alpha-4-beta-2 nAChR expressed in rat brain membrane at 100 nM

Chain of Neuronal acetylcholine receptor subunit alpha-7 (Rattus norvegicus) (Q05941 whole entry): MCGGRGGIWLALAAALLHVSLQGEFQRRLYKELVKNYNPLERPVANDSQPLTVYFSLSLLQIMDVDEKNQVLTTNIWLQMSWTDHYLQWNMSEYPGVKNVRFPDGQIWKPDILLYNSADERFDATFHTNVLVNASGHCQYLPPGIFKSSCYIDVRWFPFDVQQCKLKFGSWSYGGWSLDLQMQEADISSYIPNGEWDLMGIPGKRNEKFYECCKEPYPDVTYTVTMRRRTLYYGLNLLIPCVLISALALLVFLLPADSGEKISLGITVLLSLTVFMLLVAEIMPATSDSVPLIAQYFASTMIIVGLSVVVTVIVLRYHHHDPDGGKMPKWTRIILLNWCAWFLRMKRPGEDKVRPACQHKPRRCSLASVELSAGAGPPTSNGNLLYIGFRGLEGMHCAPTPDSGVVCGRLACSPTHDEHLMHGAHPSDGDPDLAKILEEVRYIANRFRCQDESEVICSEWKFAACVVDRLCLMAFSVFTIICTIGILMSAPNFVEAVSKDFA

Row | SMILES | inhibition [1] | inhibition [2]
1 | Cc1cccc[n+]1CCCC#Cc1cccc(C#CCCC[n+]2ccccc2C)c1 | 0% | 1.9%
2 | Cc1ccc[n+](CCCCCc2ccccc2CCCCC[n+]2cccc(C)c2)c1 | 5.4% | 0%
3 | Cc1cc[n+](CCCC#Cc2cccc(C#CCCC[n+]3ccc(C)cc3)c2)cc1 | 6.4% | 10%
4 | Cc1ccc[n+](CCCC#Cc2ccccc2C#CCCC[n+]2cccc(C)c2)c1 | 0% | 3.9%
5 | CN1CCC[C@H]1c1ccc[n+](CCCC#Cc2ccccc2C#CCCC[n+]2cccc([C@@H]3CCCN3C)c2)c1 | 9.2% | 72%
6 | Cc1cc[n+](CCCC#Cc2ccccc2C#CCCC[n+]2ccc(C)cc2)cc1 | 5.4% | 2.5%
7 | Cc1ccc[n+](CCCCCCCCCCCC[n+]2cccc(C)c2)c1 | 0% | 0%
8 | Cc1ccc[n+](CCCC#Cc2cccc(C#CCCC[n+]3cccc(C)c3)c2)c1 | 8% | 0.5%
9 | Cc1cc[n+](CCCCCc2cccc(CCCCC[n+]3ccc(C)cc3)c2)cc1 | 3.5% | 4.6%
10 | Cc1ccc[n+](CCCCCc2cccc(CCCCC[n+]3cccc(C)c3)c2)c1 | 6.24% | 3.5%
11 | Cc1cccc[n+]1CCCCc1ccc(CCCC[n+]2ccccc2C)cc1 | 0.16% | 6.3%
12 | CN1CCC[C@H]1c1ccc[n+](CCCCc2ccc(CCCC[n+]3cccc([C@@H]4CCCN4C)c3)cc2)c1 | 5.3% | 3.66%
13 | Cc1cc[n+](CCC#Cc2ccc(C#CCC[n+]3ccc(C)cc3)cc2)cc1 | 2.7% | 8.9%
14 | Cc1cccc[n+]1CCCC#Cc1ccccc1C#CCCC[n+]1ccccc1C | 1.2% | 2.1%
15 | Cc1cccc[n+]1CCCCCc1cccc(CCCCC[n+]2ccccc2C)c1 | 0% | 7.2%
16 | Cc1ccc[n+](CCC#Cc2ccc(C#CCC[n+]3cccc(C)c3)cc2)c1 | 3.1% | 13%
17 | Cc1ccc[n+](CCCCc2ccc(CCCC[n+]3cccc(C)c3)cc2)c1 | 7.41% | 4.33%
18 | CN1CCC[C@H]1c1ccc[n+](CCCC#Cc2cccc(C#CCCC[n+]3cccc([C@@H]4CCCN4C)c3)c2)c1 | 2.6% | 3.1%
19 | CN1CCC[C@H]1c1ccc[n+](CCCCCc2ccccc2CCCCC[n+]2cccc([C@@H]3CCCN3C)c2)c1 | 11% | 71%
20 | Cc1cc[n+](CCCCc2ccc(CCCC[n+]3ccc(C)cc3)cc2)cc1 | 7.73% | 1.1%
21 | Cc1cc[n+](CCCCCc2ccccc2CCCCC[n+]2ccc(C)cc2)cc1 | 3.1% | 0%
22 | Cc1cccc[n+]1CCCCCc1ccccc1CCCCC[n+]1ccccc1C | 7.6% | 0%
